37 molecules from patent US6455550B1, “N-alkanoylphenylalanine derivatives” (Hoffmann-La Roche Inc., priority 1997, dated 2002) can be followed below.

pIC50: −log10 of the molar value.

T1 sequence (P13612 34-1032): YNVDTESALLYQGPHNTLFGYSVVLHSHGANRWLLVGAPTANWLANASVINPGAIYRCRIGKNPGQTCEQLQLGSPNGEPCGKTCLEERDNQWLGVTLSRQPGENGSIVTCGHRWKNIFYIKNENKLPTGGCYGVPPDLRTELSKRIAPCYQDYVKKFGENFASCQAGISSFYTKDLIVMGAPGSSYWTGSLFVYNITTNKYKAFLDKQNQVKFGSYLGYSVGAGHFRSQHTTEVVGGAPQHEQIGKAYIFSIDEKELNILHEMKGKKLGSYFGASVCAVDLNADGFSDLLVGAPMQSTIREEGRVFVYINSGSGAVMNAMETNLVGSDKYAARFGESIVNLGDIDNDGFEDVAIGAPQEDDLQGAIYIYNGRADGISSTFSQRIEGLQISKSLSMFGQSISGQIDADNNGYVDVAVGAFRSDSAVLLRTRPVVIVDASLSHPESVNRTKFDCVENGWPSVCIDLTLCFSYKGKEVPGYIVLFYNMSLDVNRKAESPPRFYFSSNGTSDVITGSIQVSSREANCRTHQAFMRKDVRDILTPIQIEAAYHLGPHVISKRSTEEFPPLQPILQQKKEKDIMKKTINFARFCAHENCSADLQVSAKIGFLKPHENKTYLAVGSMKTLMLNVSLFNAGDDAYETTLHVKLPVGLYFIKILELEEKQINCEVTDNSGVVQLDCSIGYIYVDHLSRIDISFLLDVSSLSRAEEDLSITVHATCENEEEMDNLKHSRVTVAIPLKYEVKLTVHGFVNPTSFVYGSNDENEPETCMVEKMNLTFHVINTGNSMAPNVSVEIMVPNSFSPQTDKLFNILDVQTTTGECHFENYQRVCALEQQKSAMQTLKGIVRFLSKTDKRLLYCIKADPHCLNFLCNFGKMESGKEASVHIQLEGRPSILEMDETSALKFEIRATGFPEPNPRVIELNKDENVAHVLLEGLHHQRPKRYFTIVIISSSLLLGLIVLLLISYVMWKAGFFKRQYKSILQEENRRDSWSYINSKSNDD
T1 sequence (P05556 21-798): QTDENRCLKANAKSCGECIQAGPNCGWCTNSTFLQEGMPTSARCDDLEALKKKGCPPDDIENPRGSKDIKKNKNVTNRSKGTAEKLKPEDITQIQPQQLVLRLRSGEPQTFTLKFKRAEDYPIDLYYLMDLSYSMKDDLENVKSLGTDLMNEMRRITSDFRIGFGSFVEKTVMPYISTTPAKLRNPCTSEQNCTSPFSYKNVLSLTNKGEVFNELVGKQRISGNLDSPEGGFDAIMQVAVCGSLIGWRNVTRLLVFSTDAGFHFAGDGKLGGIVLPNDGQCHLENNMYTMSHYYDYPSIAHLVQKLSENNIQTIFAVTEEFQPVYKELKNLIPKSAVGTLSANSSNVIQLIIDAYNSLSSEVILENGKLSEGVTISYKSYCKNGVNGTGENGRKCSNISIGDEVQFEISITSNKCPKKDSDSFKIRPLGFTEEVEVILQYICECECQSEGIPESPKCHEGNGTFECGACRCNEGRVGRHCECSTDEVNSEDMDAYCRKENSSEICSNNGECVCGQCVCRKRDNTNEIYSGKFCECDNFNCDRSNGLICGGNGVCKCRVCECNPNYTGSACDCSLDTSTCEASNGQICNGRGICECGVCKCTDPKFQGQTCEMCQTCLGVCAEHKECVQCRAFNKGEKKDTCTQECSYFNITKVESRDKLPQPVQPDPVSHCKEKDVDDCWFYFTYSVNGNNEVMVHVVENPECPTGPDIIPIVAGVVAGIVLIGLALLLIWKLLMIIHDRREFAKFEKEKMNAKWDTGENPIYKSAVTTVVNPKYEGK

This test concerns the target T1, VLA-4 (α4β1 integrin) binding to immobilized VCAM-1 (Homo sapiens, UniProt P05556+P13612).
T1 construct: followed by 10 μl of Ramos cell-derived VLA-4; endogenous in cells; host or cells: Ramos cells (VLA-4 preparation derived from the cells)
Put plainly: VLA-4/VCAM-1 Screening Assay (solid-phase, dual antibody ELISA). As to conditions: Ramos cell-derived VLA-4, recombinant human VCAM-1 coated plates, 2 hr at 37° C.; read-out: IC50. The method, then: VLA-4 antagonist activity, defined as ability to compete for binding to immobilized VCAM-1 was quantitated using a solid-phase, dual antibody ELISA. VLA-4 (α4β1 integrin) bound to VCAM-1 was detected by a complex of anti-integrin β1 antibody: HRP-conjugated anti-mouse IgG: chromogenic substrate (K-Blue). Initially, this entailed coating 96 well plates (Nunc Maxisorp) with recombinant human VCAM-1 (0.4 μg in 100 μl PBS), sealing each plate and then allowing the plates to stand at 4° C for Å18 hr. […] On the day of assay, all plates were washed twice with VCAM Assay Buffer (200 μl/well of 50 mM Tris-HCl, 100 mM NaCl, 1 mM MnCl2, 0.05% Tween 20; pH 7.4). Test compounds were dissolved in 100% DMSO and then diluted 1:20 in VCAM Assay Buffer supplemented with 1 mg/mL BSA (i.e., final DMSO=5%). […] 100 μl per well of each dilution was added to the VCAM-coated plates, followed by 10 μl of Ramos cell-derived VLA-4. These plates were sequentially mixed on a platform shaker for 1 min, incubated for 2 hr at 37° C. and then washed four times with 200 μl/well VCAM Assay Buffer. 100 μl of mouse anti-human integrin β1 antibody was added to each well (0.6 μg/mL in VCAM Assay Buffer+1 mg/mL BSA) and allowed to incubate for 1 hr at 37° C. At the conclusion of this incubation period, all plates were washed four times with VCAM Assay Buffer (200 μl/well). A corresponding second antibody, HRP-conjugated goat anti-mouse IgG (100 μl per well @1:800 dilution in VCAM Assay Buffer+1 mg/mL BSA), was then added to each well, followed by a 1 hr incubation at room temperature and concluded by three washes (200 μl/well) with VCAM Assay Buffer. Color development was initiated by addition of 100 μl K-Blue per well (15 min incubation, room temp) and terminated by addition of 100 μl Red Stop Buffer per well. […] Results were calculated as % inhibition of total binding (i.e., VLA-4+VCAM-1 in the absence of test compound).
Background: ELISA stands for enzyme-linked immunosorbent assay.
One may read the pIC50 as the IC50 on a negative log10 scale, so that one unit is a factor of ten. As to `O=C(Nc1ccc(CC(NC(=O)C23CC4CC(CC(C4)C2)C3)C(=O)O)cc1)c1ccc(F)cc1C(F)(F)F` (stereo not shown) [Example 84], the pIC50 was 8.36.

Take `Cc1ccc([N+](=O)[O-])cc1C(=O)Nc1ccc(C[C@H](NC(=O)C23CC4CC(CC(C4)C2)C3)C(=O)O)cc1` [Example 85]: the pIC50 is 9.37.

Take `CC(=O)N[C@@H](Cc1ccc(O)cc1)C(=O)Nc1ccc(C[C@H](NC(=O)C23CC4CC(CC(C4)C2)C3)C(=O)O)cc1` [Example 86]: the pIC50 was 8.17. For `CCCCC(C)(CC)C(=O)NC(Cc1ccc(NC(=O)CCN2CCCCC2)cc1)C(=O)O` (stereo not shown) [Example 87], the pIC50 was 8.82. In the case of `CCCCC(C)(CC)C(=O)N[C@@H](Cc1ccc(NC(=O)c2c(Cl)cccc2Cl)cc1)C(=O)O` (stereo partly shown) [Example 88], the pIC50 is 8.41.

Consider `CCCCC(C)(CC)C(=O)N[C@@H](Cc1ccc(NC(=O)c2ccc(F)cc2C(F)(F)F)cc1)C(=O)O` (stereo partly shown) [Example 89], for which the pIC50 is 7.09. For the molecule `CCCCC(C)(CC)C(=O)N[C@@H](Cc1ccc(NC(=O)c2cc([N+](=O)[O-])ccc2C)cc1)C(=O)O` (stereo partly shown) [Example 90], the pIC50 was 8.98.

On to `CCCCC(C)(CC)C(=O)N[C@@H](Cc1ccc(NC(=O)[C@H](Cc2ccc(O)cc2)NC(C)=O)cc1)C(=O)O` (stereo partly shown) [Example 91], for which the pIC50 is 7.40. As for `N#CC1(C(=O)N[C@@H](Cc2ccc(NC(=O)CCN3CCCCC3)cc2)C(=O)O)CCCC1` [Example 92], the negative logarithm of the IC50 (pIC50) was 8.52. As to `COc1ccc(C2(C(=O)NC(Cc3ccc(NC(=O)CCN4CCCCC4)cc3)C(=O)O)CCCC2)cc1` (stereo not shown) [Example 93], the pIC50 was 8.72. Turning to `COc1ccc(CC2(C(=O)N[C@@H](Cc3ccc(NC(=O)c4ccc(F)cc4C(F)(F)F)cc3)C(=O)O)CCCC2)cc1` [Example 96], the pIC50 was 7.76.

Regarding `COc1ccc(CC2(C(=O)N[C@@H](Cc3ccc(NC(=O)c4cc([N+](=O)[O-])ccc4C)cc3)C(=O)O)CCCC2)cc1` [Example 97], the pIC50 was 9.30.

For the molecule `COc1ccc(CC2(C(=O)N[C@@H](Cc3ccc(NC(=O)[C@H](Cc4ccc(O)cc4)NC(C)=O)cc3)C(=O)O)CCCC2)cc1` [Example 98], the pIC50 was 7.93. Turning to `CC1(C(=O)N[C@@H](Cc2ccc(NC(=O)CCN3CCCCC3)cc2)C(=O)O)CC1(Cl)Cl` (stereo partly shown) [Example 99], the pIC50 is 8.68. For `CC(=O)N[C@@H](Cc1ccc(O)cc1)C(=O)Nc1ccc(C[C@H](NC(=O)C2(C)CC2(Cl)Cl)C(=O)O)cc1` (stereo partly shown) [Example 101], the pIC50 was 7.74.

With `COc1ccc(C2(C(=O)NC(Cc3ccc(NC(=O)CCN4CCCCC4)cc3)C(=O)O)CCCCC2)cc1` (stereo not shown) [Example 102], the pIC50 is 9.02.

Turning to `COc1ccc(C2(C(=O)NC(Cc3ccc(NC(=O)c4c(Cl)cccc4Cl)cc3)C(=O)O)CCCCC2)cc1` (stereo not shown) [Example 103], the pIC50 is 9.15.

Take `COc1ccc(C2(C(=O)N[C@@H](Cc3ccc(NC(=O)c4ccc(F)cc4C(F)(F)F)cc3)C(=O)O)CCCCC2)cc1` [Example 104]: the pIC50 is 7.98. Next, `COc1ccc(C2(C(=O)N[C@@H](Cc3ccc(NC(=O)c4cc([N+](=O)[O-])ccc4C)cc3)C(=O)O)CCCCC2)cc1` [Example 105]: 9.08; `COc1ccc(C2(C(=O)NC(Cc3ccc(NC(=O)C(Cc4ccc(O)cc4)NC(C)=O)cc3)C(=O)O)CCCCC2)cc1` (stereo not shown) [Example 106]: 7.87. Consider `COc1ccc(CC2(C(=O)N[C@@H](Cc3ccc(N4C(=O)c5ccncc5C4=O)cc3)C(=O)O)CCCC2)cc1` [Example 109, 4-(2,3-Dihydro-1,3-dioxo-1H-pyrrolo[3,4-c]pyridin-2-yl)-N-[[1-[(4-methoxyphenyl)methyl]cyclopentyl]carbonyl]-L-phenylalanine], for which the pIC50 was 7.21. Next, `COc1ccc(CC2(C(=O)N[C@@H](Cc3ccc(N4C(=O)c5ccccc5C4=O)cc3)C(=O)O)CCCC2)cc1` [Example 110]: 8.09; `COc1ccc(C2(C(=O)N[C@@H](Cc3ccc(NS(=O)(=O)c4c(C)cc(C)cc4C)cc3)C(=O)O)CCCCC2)cc1` [Example 114, N-[[1-(4-Methoxyphenyl)cyclohexyl]carbonyl]-4-[[(2,4,6-trimethylphenyl)sulfonyl]amino]-L-phenylalanine]: 6.81. Next, `Cc1cc(C)c(S(=O)(=O)Nc2ccc(C[C@H](NC(=O)C34CC5CC(CC(C5)C3)C4)C(=O)O)cc2)c(C)c1` [Example 115, N-[(1-Adamantyl)carbonyl]-4-[[(2,4,6-trimethylphenyl)sulfonyl]amino]-L-phenylalanine]: 7.64. With `N#CC1(c2ccccc2)CCN(C(=O)Nc2ccc(C[C@H](NC(=O)C34CC5CC(CC(C5)C3)C4)C(=O)O)cc2)CC1` [Example 118], the pIC50 is 9.46. Turning to `COc1ccc(CC2(C(=O)N[C@@H](Cc3ccc(NC(=O)N4CCC(C#N)(c5ccccc5)CC4)cc3)C(=O)O)CCCC2)cc1` [Example 119], the pIC50 is 8.30. For `CCCCC(C)(CC)C(=O)N[C@@H](Cc1ccc(NC(=O)N2CCC(C#N)(c3ccccc3)CC2)cc1)C(=O)O` (stereo partly shown) [Example 120], the pIC50 was 8.54. The figure for `CCOC(=O)c1ccccc1NC(=O)Nc1ccc(C[C@H](NC(=O)C2(C)CC2(Cl)Cl)C(=O)O)cc1` (stereo partly shown) [Example 121] is 7.18. As to `COc1ccc(C2(C(=O)N[C@@H](Cc3ccc(NC(=O)N4CCC(C#N)(c5ccccc5)CC4)cc3)C(=O)O)CCCCC2)cc1` [Example 122], the pIC50 was 8.68.

As to `COc1ccc(C2(C(=O)N[C@@H](Cc3ccc(N4C(=O)CSC4c4ccc(O)cc4)cc3)C(=O)O)CCCCC2)cc1` (stereo partly drawn) [Example 141, 4-[2-(4-Hydroxyphenyl)-4-oxo-3-thiazolidinyl]-N-[[1-(4-methoxyphenyl)cyclohexyl]carbonyl]-L-phenylalanine], the pIC50 was 8.41.

Turning to `COc1ccc(C2(C(=O)N[C@@H](Cc3ccc(N4C(=O)CSC4c4ccc5ccccc5c4)cc3)C(=O)O)CCCCC2)cc1` (stereo partly drawn) [Example 142, N-[[1-(4-methoxyphenyl)cyclohexyl]carbonyl]-4-[2-(2-naphthyl)-4-oxo-3-thiazolidinyl]-L-phenylalanine], the pIC50 was 8.77. As to `COc1ccc(C2(C(=O)N[C@@H](Cc3ccc(N4C(=O)[C@H](C)N(C)C4=O)cc3)C(=O)O)CCCCC2)cc1` [Example 143], the pIC50 was 9.07.

As to `COc1ccc(C2(C(=O)N[C@@H](Cc3ccc(N4C(=O)[C@H](CC(C)C)N(C)C4=O)cc3)C(=O)O)CCCCC2)cc1` [Example 144, N-[[1-(4-methoxyphenyl)cyclohexyl]carbonyl]-4-[(4S)-3-methyl-4-(2-methylpropyl)-2,5-dioxo-1-imidazolidinyl]-L-phenylalanine], the pIC50 is 9.12. `CCCCC(CC)C(=O)NCCC1(C(=O)N[C@@H](Cc2ccc(NC(=O)c3c(Cl)cccc3Cl)cc2)C(=O)O)CCCC1` (stereo partly shown) [Example 161]: the pIC50 was 8.03. Regarding `O=C(CC1CCCC1)NCCC1(C(=O)N[C@@H](Cc2ccc(NC(=O)c3c(Cl)cccc3Cl)cc2)C(=O)O)CCCC1` [Example 164], the pIC50 was 8.21. With `O=C(NCCC1(C(=O)N[C@@H](Cc2ccc(NC(=O)c3c(Cl)cccc3Cl)cc2)C(=O)O)CCCC1)c1ccc2c(c1)OCO2` [Example 165], the pIC50 is 7.96. For the molecule `Cn1nc(C(C)(C)C)cc1C(=O)NCCC1(C(=O)N[C@@H](Cc2ccc(NC(=O)c3c(Cl)cccc3Cl)cc2)C(=O)O)CCCC1` [Example 167], the pIC50 is 8.04.
